From patent US11781984B2, “Fluorescent method to quantify copper or platinum based on catalysis” (University of Pittsburgh—Of the Commonwealth System of …, priority 2018, dated 2023) come the findings set out here.

Series [1] can be described thus: Depropargylation of PPE with various metals and ligands (combinatorial screen). The following applies: Cu^+ and Cu^2+ in the presence of ligand, 1.2 M pH 7.0 phosphate buffer/DMSO. As to the method:
All fluorescence measurements were obtained using a Modulus II Microplate Multimode Reader. Fluorescence was measured after exciting samples with 490 nm light and emission was measured between 510-570 nm. All fluorescence measurements were obtained at room temperature. Metals and ligands were combinatorially screened in the presence of Propargyl Pittsburgh Green ether (PPE) to determine which metals and ligands facilitated the depropargylation reaction. Solid AgNO3 and Sr(NO3)2 were dissolved in 5% HNO3 (TraceMetal Grade) to a final concentration of 10 mM. AuCl3, CdCl2, CeCl3, COCl2, CuCl, CuCl2, […]7, FeSO4, FeCl3, HgCl2, MgCl2, KMnO4 NiCl2, Pb(OAc)4, Rh(OAc)2, RhCl3, RuCl3, and ZnCl2 were dissolved in 3% HCl (TraceMetal Grade) to a final concentration of 10 mM. Wilkinson's catalyst, as a source of Rh(I), was dissolved in DMSO to a final concentration of 5 mM. RuCl2(p-cymene) dimer was dissolved in DMSO to a final concentration of 5 mM (10 mM with respect to the monomer). Standard solutions of 1000 ppm Pt^2+ in 3% HCl and 1000 ppm Pd^2+ in 5% HNO3 were used. […] A mixture containing 1.2 M pH 7.0 phosphate buffer (177.2 mL), DMSO (19.42 mL), and 8.0 mM PPE (556 μL) was separated into 37 aliquots. […] These solutions containing the probe and ligand (180 μL), termed working solutions, were transferred to a black 96-well plate. The metal solutions were diluted to 10 μM using ultrapure water as the diluent. […] To analyze the data, each working solution was normalized, with the no metal sample normalized to 1.

Series [2] in a line: Distribution of copper between water and CHCl3 in the presence of DMAPPP. The class given is physicochemical. The conditions noted are these: pH 7 buffer / CHCl3 biphasic system, DMAPPP present vs absent. Here is the method:
We questioned whether copper ions would be excreted from cells when bound to DMAPPP. As a model system, CuSO4 was suspended in a biphasic system (pH 7 buffer and CHCl3) in the presence or absence of DMAPPP. Three suspensions were prepared from these: 10 mM DMAPPP in CHCl3 (1.0 mL) and 5 mM CuSO4 in 1 mM phosphate pH 7.0 buffer (1.0 mL), CHCl3 (1.0 mL) and 5 mM CuSO4 in 1 mM phosphate pH 7.0 buffer (1.0 mL), and 10 mM DMAPPP in CHCl3 (1.0 mL) and 1 mM phosphate pH 7.0 buffer (1.0 mL). The suspensions were vortexed to ensure proper partitioning of the CuSO4 and DMAPPP. Aliquots of the aqueous and organic layers of each suspension (100 μL each) were then taken and evaporated. The residue following evaporation was resuspended in HBSS (100 μL).
The working solution was prepared by the addition of 50 mM pH 8.5 borate buffer (2.96 mL), EtOH (500 μL), 800 μM PPE in EtOH (100 μL), and 10 mM DMAPPP in DMSO (40 μL). The working solution (180 μL) was transferred to the wells of a black 96-well plate. The resuspended samples (20 μL) were then added to the wells and the fluorescence was measured.

Series [3] can be described thus: Deallylation of APE with various metals and ligands (combinatorial screen). The conditions noted are these: for facilitation of the deallylation of APE: ligand screen with APE. Here is the method: In separate vials, 20-30 mg of each ligand was dissolved in DMSO containing 250 ppm butylated hydroxyl toluene (BHT) to a final concentration of 20 mM ligand. Working solutions containing the ligands were prepared by mixing 1.23 M pH 7 phosphate buffer (177.2 mL), DMSO (19.424 mL), and 8.0 mM APE in DMSO (556 μL). Aliquots of this mixture (4.944 mL) were placed into 15 mL conical tubes and 20 mM ligands and 250 ppm BHT in DMSO (55.5 μL) were added. […] Metals used in the experiments included AgNO3, AuCl3, CdCl2.2.5H2O, CeCsl3.3H2O, CoCl2.6H2O, […]7, CuCl, CuCl2.2H2O, FeSO4, FeCl3, HgCl2, MgCl2.6H2O, K2MnO4, NiCl2, Pb(OAc)2, RhCl(PPh3)3, Rh(Oac)2 dimer, […] (45.5% Rh), dichloro(p-cymene)ruthenium(II), RuCl3, Sr(NO3)2, and ZnCl2. In separate vials, 10 mM metal solutions were prepared by mixing 5-20 mg of the listed metals with dilute acid; all metals were dissolved in 3% HCl (TraceMetal Grade), with the exception of AgNO3, Sr(NO3)3, RhCl(PPh3)3, and dichloro(p-cymene)ruthenium(II). AgNO3 and Sr(NO3)3 were dissolved in 5% HNO3 (TraceMetal Grade); RhCl(PPh3)3 and dichloro(p-cymene)ruthenium(II) were dissolved in DMSO and the working solutions were adjusted to account for the solvent. The metal solutions were then diluted to 100 μM in 3% HCl or 5% HNO3 (TraceMetal Grade) or DMSO. […] For Pd, the 9.4 mM standard (21 μL) was added to 5% HNO3 (1.98 mL, TraceMetal Grade). For Pt, the 5.1 mM standard (39 μL) was added to 3% HCl (1.96 mL, TraceMetal Grade). To perform the assay, 10 μM metal solutions (20 μL) were added to the prepared working solutions (180 μL). The fluorescence was measured immediately and again after allowing the reaction to proceed for 1 h and 2 h at 25° C.

Series [4] in a line: Selectivity of optimized APE/TFPP method for platinum over palladium. The conditions noted are these: optimized salts, pH and TFPP concentration; 10 μM metals, 20 μM APE, 200 μM TFPP, pH 7.8. Here is the method:
FIG. 21: Relative reactivities of metals (10 μM) to APE with TFPP. 20 μM APE, 200 μM TFPP, pH 7.8, 25° C., 10 min, n=3.
Increased temperatures accelerated the deallylation, opening an avenue for even lower detection limits if necessary.

The nature of series [5]: Reactivity of platinum drugs after pre-incubation with LiCl or NaCl. The conditions noted are these: 10 μM drug, 50 mM LiCl or NaCl, 20 μM APE, 400 μM TFPP, 25° C., 100 min. Here is the method:
We pre-incubated the drugs with either LiCl or NaCl before adding APE and TFPP.0 or 100 μM cisplatin, carboplatin, or oxaliplatin in DMSO (100 μL) were added to centrifuge tubes. To these tubes, 0 or 1 M LiCl or NaCl in water (100 μL) was added. The solutions were then allowed to incubate at room temperature for 4 h. The working solution was made by the addition of 1.2 M phosphate pH 7.8 buffer (8.86 mL), DMSO (721 μL), 800 μM APE in DMSO (278 μL), and 20 mM TFPP in 250 ppm BHT in DMSO (111 μL). The working solution (180 μL) was then transferred to the wells of a black 96-well plate. The platinum drugs (20 μL) were then transferred to the wells and the fluorescence was measured every 5 min for 100 min.

Series [6] can be described thus: Reactivity of strongly-ligated platinum drugs with APE and TFPP. The conditions noted are these: 10 μM drug, 45° C., 1 h. Here is the method:
We incubated carboplatin and oxaliplatin with APE and TFPP. […] Carboplatin and oxaliplatin were dissolved in DMSO. The solutions were diluted to a concentration of 100 μM in DMSO. 100 μM platinum drugs in DMSO or water (20 μL) were transferred to the wells of a black 96-well plate. The working solution was prepared by the addition of 1.2 M phosphate pH 7.8 buffer (17.60 mL), DMSO (1.43 mL), 800 μM APE in DMSO (550 μL), and 40 mM TFPP in 250 ppm BHT in DMSO (220 μL). The working solution (180 μL) was then transferred to the wells and the initial fluorescence was measured. The plate was then covered and allowed to incubate in a 45° C. oven for 1 h before the fluorescence was measured again.

Series [7] can be described thus: Detection of platinum in different oxidation states (APE/TFPP). The conditions noted are these: APE and TFPP, 25° C. As to the method:
To determine whether our method depends on the oxidation state of platinum, we incubated the solution of APE and TFPP with a platinum(II) standard, K2PtCl4, K2PtCl6, or cisplatin for 10 min. Cisplatin (6.1 mg; 20 μmol) was dissolved in DMSO and diluted to a concentration of 10 μM. K2PtCl4 (5.6 mg; 13 μmol) and K2PtCl6 (6.8 mg; 14 μmol) were dissolved in water to a concentration of 10 μM. The Pt standard was diluted with ultrapure water to a concentration of 10 μM. The working solution was prepared by adding 1.2 M pH 7 phosphate buffer (8.86 mL), 800 μM APE in DMSO (278 μL), 20 mM TFPP and 250 ppm BHT in DMSO (111 μL), and DMSO (721 μL) in a 15-mL conical tube. The working solution (180 μL) and the Pt solutions (20 μL) were transferred in this order to black round-bottom 96-well plates. The reaction mixture was incubated at 25° C. for 1 h before the fluorescence was measured and reported. Average values and standard deviations are shown in FIG. 23 and “no Pt” is normalized to 1.

The mark [8] stands for this setting: Pt^2+ and APE in the presence of ligand.

Counter-ions that a name gives are not always drawn.

Regarding `O=S(=O)([O-])c1cccc(P(c2ccccc2)c2ccccc2)c1.[Na+]` [Compound 2, 3-(diphenylphosphino)bezenesulfonic acid sodium salt], the “fluorescence signals (depropargylation of PPE)” value (“fluorescence signals” for short) in series [1] is recorded as “significantly increased the fluorescence signals”.

With `CN(C)c1ccc(P(c2ccccc2)c2ccccc2)cc1` [Compound 9, 4-(dimethylamino)phenyl-diphenylphosphine], in series [1], the “fluorescence signals” value was “greatly increased the fluorescence signals”. For the same compound, the “copper concentration in the organic phase” value in series [2] is listed as “did not increase”. Turning to `O=S(=O)(O)c1cccc(P(c2cc(C(F)(F)F)cc(C(F)(F)F)c2)c2cccc(S(=O)(=O)O)c2)c1` [Compound 12, bis(3-sulfonatophenyl)(3,5-di-trifluoromethylphenyl)phosphine disodium salt], in series [3], the “facilitation of the deallylation of APE” value is on record as “facilitated the deallylation”. In the case of `Fc1ccc(P(c2ccc(F)cc2)c2ccc(F)cc2)cc1` [Compound 13, tris(4-fluorophenyl)phosphine], the “rate relative to previously reported Pt-Ph3P catalysis” value in series [3] (200 μM TFPP) was found to be 4 times. In series [3] (setting [8]), the “fluorescence signal relative to background signal” value is 40 fold and the “fluorescence signal relative to the corresponding signal from Pd^2+” value is 10 fold. The “facilitation of the deallylation of APE” value in series [3] is given as “facilitated the deallylation”. Further, the “selectivity for platinum over palladium” value in series [4] turned out to be 14 times. In the case of `COc1ccc(P(c2ccc(OC)cc2)c2ccc(OC)cc2)cc1` [Compound 15, tris(4-methoxyphenyl)phosphine], the “facilitation of the deallylation of APE” value in series [3] is “did not facilitate the deallylation”. Also, the “fluorescence signals” value in series [1] is listed as “significantly increased the fluorescence signals”. With `Cc1ccc(P(c2ccc(C)cc2)c2ccc(C)cc2)cc1` [Compound 18, tri-p-tolylphosphine], in series [3], the “facilitation of the deallylation of APE” value is reported as “facilitated the deallylation”. Besides, the “fluorescence signals” value in series [1] is recorded as “significantly increased the fluorescence signals”.

For the compound `FC(F)(F)c1ccc(P(c2ccc(C(F)(F)F)cc2)c2ccc(C(F)(F)F)cc2)cc1` [Compound 19, tris(4-trifluoromethylphenyl)phosphine], the “facilitation of the deallylation of APE” value in series [3] is “did not facilitate the deallylation”. For the compound `c1ccc(P(c2ccccc2)c2ccccc2)cc1` [Compound 34, triphenylphosphine], the “fluorescence signals” value in series [1] was “significantly increased the fluorescence signals”. Turning to `N.N.O=C([O-])C1(C(=O)[O-])CCC1.[Pt+2]` [carboplatin], the “effect of pre-incubation with LiCl or NaCl on detection” value (shortened to “effect of pre-incubation”) in series [5] is on record as “increased fluorescence”. The “reaction with APE and TFPP compared to no platinum” value in series [6] is “little reaction”. On to `N.N.[Cl][Pt][Cl]` [cisplatin], for which, in series [5], the “effect of pre-incubation” value is recorded as “did not improve the detection”. Also, in series [7], the “reactivity of platinum species (fluorescence signal)” value is reported as “exhibited reactivity, although it was lower than the inorganic species”. Turning to `O=C1[O][Pt]2([NH][C@@H]3CCCC[C@H]3[NH]2)[O]C1=O` [oxaliplatin], the “effect of pre-incubation” value in series [5] is “did not improve the detection”. Further, in series [6], the “reaction with APE and TFPP compared to no platinum” value is “little reaction”.
